# Test system: Canadice grapevines
# Experiment: Soil drench of potted grapevines near the time of bud break, Canadice
# Type: in vivo
# Protocol: A study was conducted to determine the effect of ABA applied to the soil of potted grapevines near the time of bud break. Eco-dormant bare-root Seyval Blanc and Canadice grapevines were purchased from Concord Nurseries, North Collins, N.Y. Vines were planted in pots of Promix potting mixture and held in a 5° C. dark chamber prior to treatment. Plants were moved from the 5° C. chamber to a greenhouse set to 20° C. night/25° C. day with a 12 hour light and 12 hour dark light cycle to promote bud break. One group of 5 plants was treated with 250 ml of 1000 ppm ABA (250 mg) as a soil drench 2 days after moving the vines to warm conditions. Another group of vines was treated 6 days after warming and another group of 5 plants was treated 10 days after warming. With the Seyval Blanc grapevines one group of 5 plants was treated at all 3 timings 2, 6, and 10 days after warming (750 mg total). Another group of 5 vines was not treated and acted as an untreated control. […]
substance,measurement,setting,value
"(S)-5-(1-hydroxy-2,6,6)-trimethyl-4-oxo-2-cyclohexen-1-yl)-3-methyl-(2 Z,4E)-pentadienoic acid [ABA]",Average number of broken buds per vine,"1000 ppm soil drench 2 days after warming, evaluated 13 days after warming",0
same,Average number of broken buds per vine,"1000 ppm soil drench 2 days after warming, evaluated 14 days after warming",0
same,Average number of broken buds per vine,"1000 ppm soil drench 2 days after warming, evaluated 15 days after warming",0.8
same,Average number of broken buds per vine,"1000 ppm soil drench 2 days after warming, evaluated 16 days after warming",1.2
same,Average number of broken buds per vine,"1000 ppm soil drench 2 days after warming, evaluated 17 days after warming",1.7
same,Average number of broken buds per vine,"1000 ppm soil drench 2 days after warming, evaluated 18 days after warming",1.7
same,Average number of broken buds per vine,"1000 ppm soil drench 6 days after warming, evaluated 13 days after warming",0.2
same,Average number of broken buds per vine,"1000 ppm soil drench 6 days after warming, evaluated 14 days after warming",0.7
same,Average number of broken buds per vine,"1000 ppm soil drench 6 days after warming, evaluated 15 days after warming",1.2
same,Average number of broken buds per vine,"1000 ppm soil drench 6 days after warming, evaluated 16 days after warming",1.7
same,Average number of broken buds per vine,"1000 ppm soil drench 6 days after warming, evaluated 17 days after warming",2.3
same,Average number of broken buds per vine,"1000 ppm soil drench 6 days after warming, evaluated 18 days after warming",2.5
same,Average number of broken buds per vine,"1000 ppm soil drench 10 days after warming, evaluated 13 days after warming",0.5
same,Average number of broken buds per vine,"1000 ppm soil drench 10 days after warming, evaluated 14 days after warming",1.8
same,Average number of broken buds per vine,"1000 ppm soil drench 10 days after warming, evaluated 15 days after warming",2.3
same,Average number of broken buds per vine,"1000 ppm soil drench 10 days after warming, evaluated 16 days after warming",2.3
same,Average number of broken buds per vine,"1000 ppm soil drench 10 days after warming, evaluated 17 days after warming",2.3
same,Average number of broken buds per vine,"1000 ppm soil drench 10 days after warming, evaluated 18 days after warming",2.7

# Source: patent US20130072385A1, “METHODS FOR DELAYING BUD BREAK BY APPLYING ABA ANALOGS” (priority 2011, published 2013)
